How the values were obtained:
[1] = test system: FAD-PSEN1 mutants; test: Late endosomal localisation of FAD-PSEN1 mutants in PSEN1 KO MEFs; assay type: cell-based, mouse; settings: DAPT 1 μM 16 h
Procedure: FIG. 6. Familial Alzheimer's disease (FAD) mutations in PSEN1 differently affect g-secretase localization in late endosomes. Ratio of GFP intensity in LAMP1 endosomes over total GFP signal in PSEN1 KO MEFs stably rescued with GFP-PSEN1 wild-type (Wt) or the indicated FAD-PSEN1 mutants and treated with DMSO or DAPT (1 μM) 16 h.
As these mutations were reported to have an early onset and high thermo-instability (reflecting lowest processivity), we extended this experiment to other mutations reported in Szaruga et al (2017 Cell 170). In line with the above, the PSEN1-P88L mutation translocated PSEN1/g-secretase to late endosomes as well. […] These mutations have a higher onset and affect the Ab processivity less as compared to L166P, G384A and P88L mutants.

[2] = test system: NCT; test: Cell surface biotinylation internalization assay, NCT; assay type: cell-based, mouse; settings: DAPT 1 μM
Procedure: All reagents, except otherwise stated, were kept on ice. Cells (450.000 cells for 1 h kinetic and 300.000 cells for 16 h) were plated on 6-cm dishes. 48 h after plating, cells were placed on ice, washed in PBS (pH 8) and next incubated in PBS (pH 8) supplemented with 0.25 mg/ml sulfo-NHS-SS-Biotin (Pierce) (10 min at 4° C.). Excess of biotin was washed out with PBS and cells were incubated in quench buffer (0.5% BSA, 100 mM Glycine in PBS) for 15 min at 4° C. Cells were then washed with PBS and incubated at 37° C. in complete pre-warmed medium (with or without DAPT 1 μM) for the appropriate time or kept at 4° C. as a control. Endocytosis was quickly stopped by placing the dishes back on ice and washing the cells with ice-cold PBS. Remaining biotin at the cell surface was cleaved off by incubating the cells twice in PBS containing 100 mM 2-sodium-2-mercaptoethanesulfonate (Sigma) as a reducing agent (15 min at 4° C.). […] Total protein was measured and biotinylated proteins were pulled down from equal amounts of extracts using streptavidin Sepharose beads (Pierce) (4° C., overnight on a rotation wheel). […] To evaluate the internalized pool for each protein to total cell surface, the (R37-R0)/NR*100 ratio for each time point were quantified. For the 16 h time point, the R37/NR*100 were quantified for each condition. […]

[3] = biological target: PSEN1/g-secretase (Homo sapiens, UniProt P49768); test: GFP-PSEN1 relocation in primary hippocampal neurons; assay type: cell-based; design: expressed in transfected cells; host or cells: rat (E18) primary hippocampal neurons, lentiviral pFUGW-GFP-PSEN1; settings: rat primary hippocampal neurons, 1 μM
Procedure: FIG. 1. DAPT relocates PSEN1/g-secretase to late endosomes. (A) PSEN1 and PSEN2 double knock-out (dKO) MEFs stably expressing GFP-PSEN1 or GFP-PSEN2 were treated for 16 h with 1 μM of DAPT or DMSO and immunostained for GFP (green) and LAMP1 antibodies (red). (B) Quantification of (A) using Mander's coefficient. (C) Ratio of GFP intensity in LAMP1-positive structures over total GFP intensity in the cell, normalized to DMSO-treated cells (control=Ctrl). (D) Quantification of size area of LAMP1-positive organelles per cell showing no significant differences between DMSO and DAPT-treated cells. (E) PSEN1, PSEN2 and NCT triple KO MEFs stably rescued with NCT-SNAP and GFP-PSEN1 were treated for 16 h with 1 μM of DAPT or DMSO (Ctrl). Prior to fixation, SNAP-Cell 647-SiR was added to label NCT-SNAP (red for Merge2). After 1 h, cells were fixed and immunostained for GFP (green) and LAMP1 (red for Merge2). Two merged images are shown. […] All graphs show the median with 95% confidence interval (n=3, ˜20 cells per experiments; p-values are calculated using Mann-Whitney test; ns means non-significant). […]
The plasmids pSG5-C99-3×FLAG and pMSCV-GFP-PSEN1-wt and FADs, pFUGW-GFP-PSEN1 were previously described (Sannerud et al 2016 Cell 166). […] Primary hippocampal neurons were infected at 3 to 4 days in vitro (DIV) and analyzed at 7 DIV.

C[C@H](NC(=O)Cc1cc(F)cc(F)c1)C(=O)N[C@H](C(=O)OC(C)(C)C)c1ccccc1 [DAPT, N—[N-(3,5-difluorophenacetyl)-L-alanyl]-S-phenylglycine t-butyl ester]
late endosomal localization of mutant PSEN1 ([1]; L166P, G384A, P88L mutants): did not further increase late endosomal localization | shift of PSEN1/g-secretase to late endosomes ([1]; Y115H and E280A mutants): did not shift PSEN1/g-secretase to late endosomes, unless treated with DAPT | internalized NCT (internalization kinetics) ([2]; 5, 10, 30 and 60 min): did not reveal significant differences in internalized NCT | amount of biotinylated NCT pulled down ([2]; 16 h time point): doubling of the amount of biotinylated NCT | relocation of GFP-PSEN1 [3]: Identical observations

— patent publication US20220397566A1, “GAMMA-SECRETASE STABILIZING COMPOUND SCREENING ASSAY” (VIB VZW, priority 2019, published 2022)
